Data from patent US20050080055A1, “Method of treating breast cancer with androgen receptor antagonists” (priority 2003, published 2005).

Legend:
Assay in all cases: Sulforhodamine B (SRB) cytotoxicity assay
Type in all cases: cell-based
[1] = test system: TCCSUP; conditions: Homo sapiens, TCC-SUP
[2] = test system: MCF-7; conditions: Homo sapiens
Protocol: (§1) The SRB Assay was used to determine cell number during cytotoxocity experiments. The following protocol was used: • 1. Cells were detached with 0.25% trypsin. • 2. Experimental cultures were cultured in 96-well microtiter plates (200 uL growth medium per well; 1,000-200,000 cells per well). • 3. Cultures were fixed with 50 uL 50% TCA (4° C.). (see cell fixation protocol for details). • 4. Fixed cells were stained with 50 uL 0.4% (wt/vol) SRB in 1% acetic acid for 10 minutes. • 5. SRB was removed and the cultures were quickly* rinsed 5 times with 1% acetic acid to remove unbound dye.** * quickly performing rinsing process is to prevent desorption of protein-bound SRB ** completely remove residual wash solution by sharply flicking plates over sink. • 6. Cultures were air-dried overnight until there is no visible moisture. • 7. The cellular protein-bound SRB was dissolved with 200 uL unbuffered Tris base (10 mM, pH 10.5) for 30 minutes on a rocking platform shaker. • 8. Absorbance was read at 540 nm. Fixation of Cells Attached to the Plastic Substratum
The following protocol was used for fixing cells: • a. 50 uL of 50% TCA (4° C.) were gently layered on the top of growth medium in each well to make a final TCA concentration of 10%. • b. Cultures were incubated at 4° C. for 1 hour. • c. […]

[3] = test system: HT-29; conditions: Homo sapiens
[4] = test system: DU 145; conditions: Homo sapiens
Protocol: (§2) PPC-1, LNCaP, TSU, PC-3, and DU145 were grown in PRMI-1640 medium containing 2 mM L-glutamine supplemented with 10% fetal bovine serum (FBS). Cells were maintained in a 5% CO2/95% air humidified atmosphere at 37° C.
as §1
(§3) The following protocol was used for fixing cells: • a. 50 uL of 50% TCA (4° C.) were gently layered on the top of growth medium in each well to make a final TCA concentration of 10%. • b. Cultures were incubated at 4° C. for 1 hour. • c. Cultures were washed 5 times with tap water to remove TCA, growth medium, low-molecular-weight metabolites, and serum protein. • d. Plates were air-dried until there was no visible moisture.
(§4) The IC50s of I-31, I-29, S-NTBA and Compound V in different prostate cancer cell lines (DU 145, PC-3, TSU, PPC-l and LNCaP), in a breast cancer cell line (MCF-7), in other cancer cell lines ([…]) and in a control cell line (CV-1) after 1 and 4 days of incubation with the drug, are shown in Tables 2A and B.

[5] = test system: LNCaP; conditions: Homo sapiens
Protocol: as §2, §1, §3, §4

[6] = test system: PPC-1; conditions: Homo sapiens
Protocol: as §2, §1, §3, §4

[7] = test system: TSU; conditions: Homo sapiens, 96 h; drug incubation time 4 days
Protocol: as §2, §1, §3, §4

[8] = test system: PC-3; conditions: Homo sapiens
Protocol: as §2, §1, §3, §4

[9] = 24 h, drug incubation time 1 day
[10] = 96 h, drug incubation time 4 days

C[C@@](O)(CBr)C(=O)Nc1ccc([N+](=O)[O-])c(C(F)(F)F)c1 [S-NTBA]
IC50 [1, 9]: 9.5 ± 3.6 µM
IC50 [1, 10]: 4.6 µM
IC50 ([2]; MCF7, 24 h, drug incubation time 1 day): 3.3 ± 0.6 µM
IC50 ([2]; MCF7, 96 h, drug incubation time 4 days): 3.3 ± 0.6 µM
IC50 ([3]; HT-29, 24 h, drug incubation time 1 day): 19.8 ± 1 µM
IC50 ([3]; HT-29, 96 h, drug incubation time 4 days): 10.8 µM
IC50 ([4]; DU-145, 24 h, drug incubation time 1 day): 5.5 ± 0.6 µM
IC50 ([4]; DU-145, 96 h, drug incubation time 4 days): 4.6 µM
IC50 [5, 9]: 1.6 ± 0.5 µM
IC50 [5, 10]: 1.8 µM
IC50 ([6]; PPC-1, 24 h, drug incubation time 1 day): 1.7 ± 0.2 µM
IC50 ([6]; PPC-1, 96 h, drug incubation time 4 days): 2.7 µM
IC50 [7]: 2.9 µM
IC50 ([8]; PC-3, 24 h, drug incubation time 1 day): 7.9 ± 0.7 µM
IC50 ([8]; PC-3, 96 h, drug incubation time 4 days): 3.7 µM
